What was measured:
Assay type in all cases: in vivo
Conditions in all cases: mice
P388 leukemia [1] = assay: Antitumor effect against P388 leukemia, QD 1→9 ip
Protocol: (§1) Antitumor activity of representative compounds of the present invention was determined using in vivo murine transplantable P388 leukemia and B16 melanoma models.
(§2) P388 leukemia: female CDF1 and male BDF1 mice were inoculated by intraperitoneal injection of 0.8 ml diluted ascitic fluid containing 10^6 cells.
(§3) Test materials were dissolved in 0.9% saline containing 10% dimethyl sulfoxide and graded doses of them were administered to mice intraperitoneally 24 hrs after tumor implantation. Two dosing schedules were used for the P388 leukemia experiment: once daily on day 1 through day 3 (QD 1→3); and once daily on day 1 through day 9(QD 1→9). The QD 1→9 schedule was used for the B16 melanoma experiment.
(§4) Antitumor activity is evaluated as the increase in median survival time (MST) of treated (T) and control (C) animals for various dosage regimens expressed as a percentage ratio (T/C %=MST of treated.div.MST of control×100). For both in vivo P388 leukemia and in vivo B16 melanoma models, values for percentage ratios of 125 and above indicate significant antitumor effect.

P388 leukemia [2] = assay: Antitumor effect against P388 leukemia, QD 1→3 ip
Protocol: as §1, §2, §3, §4

B16 melanoma = assay: Antitumor effect against B16 melanoma, QD 1→9 ip
Protocol: as §1
B16 melanoma: male BDF1 mice were implanted with 0.5 ml of a 10% tumor brei intraperitoneally.
as §3, §4

SMILES	MST (% T/C) (P388 leukemia [1]; 0.13 mg/kg/day)	MST (% T/C) (P388 leukemia [1]; 0.25 mg/kg/day)	MST (% T/C) (P388 leukemia [1]; 0.63 mg/kg/day)	MST (% T/C) (P388 leukemia [1]; 1 mg/kg/day)	MST (% T/C) (P388 leukemia [1]; 2 mg/kg/day)	MST (% T/C) (P388 leukemia [2]; 1 mg/kg/day)	MST (% T/C) (P388 leukemia [2]; 3 mg/kg/day)	MST (% T/C) (P388 leukemia [2]; 10 mg/kg/day)	other results
CCCCCCC/C=C/C=C/C(=O)N[C@H](C(=O)N[C@H]1C[C@@H](O)CCNC(=O)/C=C/[C@H](C)NC1=O)[C@@H](C)O [BU-2867T A]	130 % T/C	150 % T/C	110 % T/C	190 % T/C	Tox	145 % T/C	Tox	–	MST (% T/C) (P388 leukemia [1]; 0.5 mg/kg/day): 155 % T/C; MST (% T/C) (P388 leukemia [2]; .3 mg/kg/day): 130 % T/C; MST (% T/C) (B16 melanoma; 1 mg/kg/day): 116 % T/C; MST (% T/C) (B16 melanoma; 2 mg/kg/day): Tox; MST (% T/C) (B16 melanoma; .13 mg/kg/day): 97 % T/C; MST (% T/C) (B16 melanoma; .25 mg/kg/day): 100 % T/C; MST (% T/C) (B16 melanoma; .5 mg/kg/day): 113 % T/C
CCCCCC=CCCC=CC=CC(=O)NC(C(=O)NC1CC(O)CCNC(=O)C=CC(C)NC1=O)C(C)O (centres unmarked) [BU-2867T B]	–	130 % T/C	130 % T/C	170 % T/C	180 % T/C	–	–	–	MST (% T/C) (P388 leukemia [1]; 4 mg/kg/day): Tox; MST (% T/C) (B16 melanoma; 2 mg/kg/day): Tox
CCCCCCCCCC=CC=CC(=O)NC(C(=O)NC1CC(O)CCNC(=O)C=CC(C)NC1=O)C(C)O (centres unmarked) [BU-2867T C]	130 % T/C	160 % T/C	–	170 % T/C	–	–	–	57 % T/C	MST (% T/C) (P388 leukemia [1]; 4 mg/kg/day): 65 % T/C; MST (% T/C) (B16 melanoma; 4 mg/kg/day): Tox
CCCCCCCCCCCC(=O)N[C@H](C(=O)NC1CC(O)CCNC(=O)/C=C/C(C)NC1=O)[C@@H](C)O (some centres unmarked) [Example 1, n-Dodecanoyl-III]	–	–	–	150 % T/C	–	130 % T/C	–	–	–
CCCCCCCCCC(=O)N[C@H](C(=O)NC1CC(O)CCNC(=O)/C=C/C(C)NC1=O)[C@@H](C)O (some centres unmarked) [Example 2, n-Decanoyl-III]	–	–	–	–	–	–	–	64 % T/C	–
CCCCCCCCCCCCCC(=O)N[C@H](C(=O)NC1CC(O)CCNC(=O)/C=C/C(C)NC1=O)[C@@H](C)O (some centres unmarked) [Example 3, n-Tetradecanoyl-III]	–	–	–	150 % T/C	150 % T/C	–	–	55 % T/C	–
CCCCCCCCOc1ccc(C(=O)N[C@H](C(=O)NC2CC(O)CCNC(=O)/C=C/C(C)NC2=O)[C@@H](C)O)cc1 (some centres unmarked) [Example 6, p-n-Octyloxybenzoyl-III]	140 % T/C	150 % T/C	120 % T/C	Tox	–	150 % T/C	Tox	–	–
CCCCCCCCCCCCCCCC(=O)NC(C(=O)NC1CC(O)CCNC(=O)C=CC(C)NC1=O)C(C)O [Example 10, Palmitoyl-L-Threonyl-II]	–	–	–	–	–	114 % T/C	119 % T/C	138 % T/C	–
